In publication PMC6502639 (Nature protocols, 2018):
Read-outs that look alike come from different tables or passages of the source.

Columns and labels:
hiPSC-CMs [1] = system: hiPSC-CMs
hiPSC-CMs [2] = details: cited from earlier work
patient cardiac function = details: patients; abbreviations in table footnote; ref Table S1 in Sharma et al. 10; cited from earlier work
hiPSC-CMs [3] = details: cited from earlier work; for hiPSC-CM cytotoxicity (in words): hiPSC-CMs
hiPSC-CMs [4] = details: cited from earlier work; remark: listed apart in the source
hiPSC-CMs [5] = details: cited from earlier work; remark: listed apart in the source
[6] = 0 to 1, average of normalized CoB and LD50 corrected by Cmax, without EC or AE
[7] = concentration at which 50% loss in hiPSC-CM viability is observed, 72 h

Structure (SMILES)	Normalized CSI-Lite (CSINLITE) (hiPSC-CMs [1]; human)	Normalized CSI (CSIN) (hiPSC-CMs [2])	Clinically reported cardiotoxicity (patient cardiac function)	LD50 (hiPSC-CMs [3])	hiPSC-CM contractility alteration (in words) (hiPSC-CMs [4])	hiPSC-CM cytotoxicity (in words) (hiPSC-CMs [3])	Normalized CSI-Lite (CSINLITE) (hiPSC-CMs [1]; [6])	LD50 (hiPSC-CMs [3]; [7])	Effect on hiPSC-CM action potential / electrophysiology (in words) (hiPSC-CMs [5])
CN(C)C/C=C/C(=O)Nc1cc2c(Nc3ccc(F)c(Cl)c3)ncnc2cc1O[C@H]1CCOC1 [Afatinib]	0.515	0.444	None	12.30 µM	–	–	–	–	–
CNC(=O)c1ccccc1Sc1ccc2c(/C=C/c3ccccn3)n[nH]c2c1 [Axitinib]	1.000	1.000	HF (rare), Hy	–	does not substantially alter	does not substantially alter	–	–	–
COc1cc(Nc2c(C#N)cnc3cc(OCCCN4CCN(C)CC4)c(OC)cc23)c(Cl)cc1Cl [Bosutinib]	–	–	–	–	–	–	0.423	12.39 µM	–
COc1cc2nccc(Oc3ccc(NC(=O)C4(C(=O)Nc5ccc(F)cc5)CC4)cc3)c2cc1OC [Cabozantinib]	1.000	0.769	None^b	–	–	–	–	–	–
C[C@@H](Oc1cc(-c2cnn(C3CCNCC3)c2)cnc1N)c1c(Cl)ccc(F)c1Cl [Crizotinib]	–	0.063	QT, Brady	8.60 µM	–	–	0.067	–	–
CC(C)(C)c1nc(-c2cccc(NS(=O)(=O)c3c(F)cccc3F)c2F)c(-c2ccnc(N)n2)s1 [Dabrafenib]	–	0.459	–	–	–	–	0.561	100.68 µM	–
Cc1nc(Nc2ncc(C(=O)Nc3c(C)cccc3Cl)s2)cc(N2CCN(CCO)CC2)n1 [Dasatinib]	0.599	0.524	QT, PE, Hy	–	–	–	–	42.00 µM	–
COc1cccc2c1C(=O)c1c(O)c3c(c(O)c1C2=O)C[C@@](O)(C(=O)CO)C[C@@H]3O[C@H]1C[C@H](N)[C@H](O)[C@H](C)O1 [Doxorubicin]	0.008	0.010	HF, LV^a	–	–	–	–	0.78 µM	–
C#Cc1cccc(Nc2ncnc3cc(OCCOC)c(OCCOC)cc23)c1 [Erlotinib]	0.570	0.653	MI (rare)	87.60 µM	–	–	–	–	–
COc1cc2ncnc(Nc3ccc(F)c(Cl)c3)c2cc1OCCCN1CCOCC1 [Gefitinib]	–	–	None	–	–	–	–	–	–
C=CC(=O)N1CCC[C@@H](n2nc(-c3ccc(Oc4ccccc4)cc3)c3c(N)ncnc32)C1 [Ibrutinib]	0.580	0.507	–	–	–	–	–	–	–
CS(=O)(=O)CCNCc1ccc(-c2ccc3ncnc(Nc4ccc(OCc5cccc(F)c5)c(Cl)c4)c3c2)o1 [Lapatinib]	0.190	0.209	LV, QT^b	–	–	–	–	100.76 µM	–
Cc1cn(-c2cc(NC(=O)c3ccc(C)c(Nc4nccc(-c5cccnc5)n4)c3)cc(C(F)(F)F)c2)cn1 [Nilotinib]	0.148	–	QT, LV, Vas^a	29.00 µM	–	–	–	–	–
Cc1ccc(Nc2nccc(N(C)c3ccc4c(C)n(C)nc4c3)n2)cc1S(N)(=O)=O [Pazopanib]	–	0.671	QT, LV (rare)^b	–	–	–	1.000	–	–
Cc1ccc(C(=O)Nc2ccc(CN3CCN(C)CC3)c(C(F)(F)F)c2)cc1C#Cc1cnc2cccnn12 [Ponatinib]	–	–	–	–	–	–	0.225	4.30 µM	–
CNC(=O)c1cc(Oc2ccc(NC(=O)Nc3ccc(Cl)c(C(F)(F)F)c3)c(F)c2)ccn1 [Regorafenib]	–	0.010	MI, Hy^b	–	–	–	0.010	7.10 µM	–
CNC(=O)c1cc(Oc2ccc(NC(=O)Nc3ccc(Cl)c(C(F)(F)F)c3)cc2)ccn1 [Sorafenib]	0.003	0.004	QT, LV, HF, MI, Hy	3.40 µM	–	highly cytotoxic to hiPSC-CMs	–	–	–
CCN(CC)CCNC(=O)c1c(C)[nH]c(/C=C2\C(=O)Nc3ccc(F)cc32)c1C [Sunitinib]	0.292	0.218	HF, LV, MI, QT, Hy^b	12.70 µM	–	–	–	–	–
CC(=O)Nc1cccc(-n2c(=O)n(C3CC3)c(=O)c3c(Nc4ccc(I)cc4F)n(C)c(=O)c(C)c32)c1 [Trametinib]	1.000	–	–	–	–	–	–	66.80 µM	–
COc1cc2c(Nc3ccc(Br)cc3F)ncnc2cc1OCC1CCN(C)CC1 [Vandetanib]	–	0.041	QT, TdP, SCD, HF, Hy^a	–	elicited arrhythmias and alterations in hiPSC-CM contractility	–	0.056	20.60 µM	caused changes in hiPSC-CM electrophysiology and action potential duration
CCCS(=O)(=O)Nc1ccc(F)c(C(=O)c2c[nH]c3ncc(-c4ccc(Cl)cc4)cc23)c1F [Vemurafenib]	–	0.003	–	–	–	–	0.002	32.10 µM	–
